According to article PMC9007940, “Oscillatory calcium release and sustained store-operated oscillatory calcium signaling prevents differentiation of human oligodendrocyte progenitor cells” (Scientific Reports, 2022):

Experiments:
[1] = target: T1, metabotropic type 5 glutamate receptor (mGluR5) (Homo sapiens, UniProt P41594); experiment: GCaMP6s calcium imaging dose-response (AUC) in primary human OPCs, endogenous receptor; type: cell-based
T1 construct: gene GRM5

[2] = test system: T2, muscarinic acetylcholine receptor M3 (M1/3R); experiment: GCaMP6s calcium imaging dose-response (AUC) in primary human OPCs, endogenous M1/M3 receptors; type: cell-based
T2 construct: gene CHRM3

T1 sequence (P41594 21-1212): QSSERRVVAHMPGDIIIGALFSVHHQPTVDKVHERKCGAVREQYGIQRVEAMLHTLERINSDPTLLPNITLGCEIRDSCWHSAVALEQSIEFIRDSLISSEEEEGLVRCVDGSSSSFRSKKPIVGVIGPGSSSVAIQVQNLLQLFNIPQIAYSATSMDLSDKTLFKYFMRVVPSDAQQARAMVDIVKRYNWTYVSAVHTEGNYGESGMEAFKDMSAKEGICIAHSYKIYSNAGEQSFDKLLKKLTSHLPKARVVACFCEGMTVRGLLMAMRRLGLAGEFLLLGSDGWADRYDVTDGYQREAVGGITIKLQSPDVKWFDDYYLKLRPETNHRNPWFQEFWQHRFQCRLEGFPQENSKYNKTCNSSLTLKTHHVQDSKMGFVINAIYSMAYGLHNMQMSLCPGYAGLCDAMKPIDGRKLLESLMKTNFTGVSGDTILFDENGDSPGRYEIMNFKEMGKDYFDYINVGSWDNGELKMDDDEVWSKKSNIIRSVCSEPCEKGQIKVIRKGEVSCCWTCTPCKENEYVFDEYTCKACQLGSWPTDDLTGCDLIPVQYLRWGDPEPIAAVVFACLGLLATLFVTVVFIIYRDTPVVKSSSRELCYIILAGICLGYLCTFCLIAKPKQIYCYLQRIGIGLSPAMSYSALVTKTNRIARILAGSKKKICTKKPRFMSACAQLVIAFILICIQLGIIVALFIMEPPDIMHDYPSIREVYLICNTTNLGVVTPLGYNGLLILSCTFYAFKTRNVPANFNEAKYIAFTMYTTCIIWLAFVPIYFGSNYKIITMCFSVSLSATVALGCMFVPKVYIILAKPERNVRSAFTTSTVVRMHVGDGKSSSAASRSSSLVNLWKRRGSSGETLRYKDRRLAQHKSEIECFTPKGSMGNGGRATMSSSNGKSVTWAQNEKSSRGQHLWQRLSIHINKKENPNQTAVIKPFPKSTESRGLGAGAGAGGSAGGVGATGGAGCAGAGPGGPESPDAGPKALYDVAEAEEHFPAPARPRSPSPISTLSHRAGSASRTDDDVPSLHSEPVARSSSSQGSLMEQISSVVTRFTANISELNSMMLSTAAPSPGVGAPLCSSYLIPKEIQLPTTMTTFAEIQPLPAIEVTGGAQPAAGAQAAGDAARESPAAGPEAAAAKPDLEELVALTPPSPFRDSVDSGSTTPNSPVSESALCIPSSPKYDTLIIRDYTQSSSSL

SMILES	EC50 [1] [µM]	EC50 [2] [µM]
NC(C(=O)O)c1cc(O)ccc1Cl (centres unmarked) [CHPG]	1300	
C[N+](C)(C)CC#CCN1CCCC1=O [Oxo-M]		2.2
